Test results from patent publication US20070123533A1, “New process for preparing an optically pure 2-morpholinol derivative” (SMITHKLINE BEECHAM CORPORATION, priority 2003, published 2007).
Converted amounts (≈) assume the structure as drawn.

Legend:
[1] = Solubility of the racemate in the chromatography eluent; format: physicochemical; conditions: organic solvent or mixture
From the text: The selectivity obtained has a strong influence on process productivity. As illustrated in Example 3 below the addition of isopropanol to the acetonitrile mobile phase increased the selectivity over two-fold. The process productivity is almost proportional to [formula] but other parameters also have to be considered to select the best chromatographic conditions. The process is also influenced by the retention of the compounds, with tests showing the retention to be maximal at 2-3% isopropanol. However the solubility of the racemate is shown to increase with increasing isopropanol content allowing a more concentrated feed to be injected. […] Also from the standpoint of process operation robustness, since MCC involves continuous operation it is important to avoid any precipitation effects which could halt the system. Using a mobile phase containing isopropanol reduces the likelihood of precipitation occurring and is advantageous over a MCC system operating purely in 100% acetonitrile in which racemate feed and isolated enantiomers are less soluble. […]

[2] = Racemization of the pure enantiomer in heated solvents, optical purity followed over time; format: physicochemical; conditions: for Final OP (%): about 60-65° C. under reflux, starting OP >99.8%, about 20 g/L
Description: Pure (+)-(2S,3S)-2-(3-chlorophenyl)-3,5,5-trimethyl-2-morpholinol was tested with various solvents in order to optimize the racemization. Specifically, about 2 g of pure enantiomer ((+)(2S,3S)-2-(3-chlorophenyl)-3,5,5-trimethyl-2-morpholinol) were dissolved into 100 ml (total concentration of about 20 g/L) of solvent (see various solvents below) and heated up to about 60-65° C. under stirring (under reflux). The solution was sampled periodically in order to follow the kinetics of racemization.
Table 11 illustrates the Optical Purity of the racemization of the enantiomer in various solvents or solvent mixtures: […]

Final OP (%) ([2]; Acetonitrile/IPA (95/5), 20 hours) | Final OP (%) ([2]; Isopropanol, 20 hours) | Final OP (%) ([2]; Methanol, 2 hours) | Final OP (%) ([2]; Methanol/HCl, 2 hours) | Final OP (%) ([2]; Water/HCl, 2 hours) | racemization (in words) ([2]; acidic aqueous solvent) | racemization conversion ([2]; methanol, after 2 hours) [%] | racemization conversion ([2]; pure isopropanol, after 20 hours) [%] | SMILES | solubility ([1]; in acetonitrile/isopropanol 95/5 mixture) [mg/mL] | solubility ([1]; in pure acetonitrile) [mg/mL]
 |  |  |  |  |  |  |  | C[C@H]1NC(C)(C)CO[C@]1(O)c1cccc(Cl)c1 (racemic) [racemate, (+/−)-(2R*, 3R*)-2-(3-chlorophenyl)-3,5,5-trimethyl-2-morpholinol] | 30 (≈ 117 mM) | 22.5 (≈ 88 mM)
92.8 | 84.8 | 95.3 | 97.4 | >99.8 | No racemization is observed | 10 | 30 | C[C@@H]1NC(C)(C)CO[C@@]1(O)c1cccc(Cl)c1 [(+)-(2S,3S)-2-(3-chlorophenyl)-3,5,5-trimethyl-2-morpholinol] |  | 
